Laboratory results: patent US20080145453A1, “Novel Dihydropyrimidine Derivatives And Their Use As Anti-Cancer Agents” (priority 2005, published 2008)

Legend:
[1] = target: T1, human Eg5 (monomeric construct Eg52-386) (Homo sapiens, UniProt P52732); assay: In vitro inhibition of the ATPase activity of kinesin Eg5 (pyruvate kinase/lactate dehydrogenase coupled assay); format: biochemical; conditions: for % inhibition: in vitro ATPase activity of Eg5, inhibitor concentration not given; for IC50: in vitro inhibition of ATPase activity of Eg5
T1 construct: the basal ATPase activity was measured using 1-4 μM of Eg5 (2-386) for the above test; made in house
T1 sequence (P52732 2-386): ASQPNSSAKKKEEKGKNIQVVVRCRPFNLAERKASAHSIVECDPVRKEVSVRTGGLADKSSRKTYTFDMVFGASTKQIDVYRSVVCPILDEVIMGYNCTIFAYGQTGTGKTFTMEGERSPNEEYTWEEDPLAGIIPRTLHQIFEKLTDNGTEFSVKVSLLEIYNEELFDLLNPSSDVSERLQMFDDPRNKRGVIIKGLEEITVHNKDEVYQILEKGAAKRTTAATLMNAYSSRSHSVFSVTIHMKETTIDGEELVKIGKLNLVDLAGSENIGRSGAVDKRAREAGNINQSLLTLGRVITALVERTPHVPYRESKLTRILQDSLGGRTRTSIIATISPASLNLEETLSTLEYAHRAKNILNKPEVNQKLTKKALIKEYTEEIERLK
Experimental: All the assays were carried out at ambient temperature using the TECAN 96-well Sunrise photometer with a final volume of 200-250 μl per well. The ATPase contents were measured using the pyruvate kinase/lactate dehydrogenase protocol in an A25A buffer (25 mM potassium ACES, pH 6.9, 2 mM magnesium acetate, 2 mM potassium EGTA, 0.1 mM potassium EDTA, 1 mM mercaptoethanol) . In the […] of MT (microtubules) stabilized with paclitaxel, 300 nM of Eg52-386 were used for the test and, in the absence of MT, the basal ATPase activity was measured using 1-4 μM of Eg5 (2-386) for the above test or the malachite green test. For optimal solubility of the inhibitor, the assays were carried out in the presence of up to 2.2% of DMSO. […] The data were analyzed using a Kaleidagraph 3.0 (Synergy Software) and Microsoft Excel, so as to obtain the IC50 values.
The IC50 values for the in vitro inhibition of the ATPase activity of the kinesin motor proteins are determined according to the method described in S. DeBonis et al. (2003) Biochemistry 42, 338-349. Monastrol was used as a positive control. When necessary, the concentrations of inhibitor were adjusted according to the initial IC50. Each concentration of inhibitor was measured one to three times and averaged data are indicated with the margins of error±the standard deviation.

kinesin Eg5 = target: T2, kinesin Eg5 (Homo sapiens, UniProt P52732); conditions: prior-art values given in the background; read-out: antimitotic effect IC50; cited from earlier work
T2 sequence (P52732 1-1056): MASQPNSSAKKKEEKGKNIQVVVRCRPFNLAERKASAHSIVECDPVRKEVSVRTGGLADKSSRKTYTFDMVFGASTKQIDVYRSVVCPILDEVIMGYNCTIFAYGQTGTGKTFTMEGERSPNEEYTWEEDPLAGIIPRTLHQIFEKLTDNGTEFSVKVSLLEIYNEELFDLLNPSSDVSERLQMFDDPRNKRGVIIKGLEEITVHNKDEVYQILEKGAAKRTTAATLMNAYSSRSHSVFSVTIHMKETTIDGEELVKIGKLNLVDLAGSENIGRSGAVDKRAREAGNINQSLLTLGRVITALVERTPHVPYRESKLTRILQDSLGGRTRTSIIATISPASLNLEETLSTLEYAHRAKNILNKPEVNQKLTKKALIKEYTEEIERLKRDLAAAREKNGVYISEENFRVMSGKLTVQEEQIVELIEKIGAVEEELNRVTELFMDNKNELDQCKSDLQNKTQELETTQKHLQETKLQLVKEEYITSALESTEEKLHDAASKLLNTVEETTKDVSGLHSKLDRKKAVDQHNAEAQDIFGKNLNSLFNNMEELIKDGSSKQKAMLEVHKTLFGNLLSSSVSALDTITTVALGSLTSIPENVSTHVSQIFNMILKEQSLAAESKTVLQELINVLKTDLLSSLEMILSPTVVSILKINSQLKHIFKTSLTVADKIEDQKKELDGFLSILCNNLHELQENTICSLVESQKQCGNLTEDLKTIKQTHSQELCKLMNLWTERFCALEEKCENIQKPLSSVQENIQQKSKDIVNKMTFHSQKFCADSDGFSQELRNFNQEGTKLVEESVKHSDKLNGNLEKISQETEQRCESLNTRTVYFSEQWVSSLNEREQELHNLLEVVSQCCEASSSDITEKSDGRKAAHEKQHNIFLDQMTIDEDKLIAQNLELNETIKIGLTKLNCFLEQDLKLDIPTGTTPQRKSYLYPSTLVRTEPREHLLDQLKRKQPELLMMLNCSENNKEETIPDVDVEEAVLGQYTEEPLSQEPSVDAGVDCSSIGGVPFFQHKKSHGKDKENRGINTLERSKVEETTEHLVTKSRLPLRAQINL

Q: Which “% inhibition” value [1] does the source give for `CCOC(=O)C1=C(C)NC(=S)NC1c1ccccc1` (stereo not drawn) [Compound 1] here?
A: The value was 80%.

Q: And the IC50 [1]?
A: The IC50 was 9.5 µM.

Q: What does the source list for `CCOC(=O)C1=C(C)NC(=S)NC1c1cccc(O)c1` (stereo not drawn) [Compound 2]?
A: % inhibition [1]: ≧90%^; IC50 [1]: 16 µM

Q: Which “% inhibition” value [1] does the source give for `CCOC(=O)C1=C(C)NC(=S)NC1c1ccc(O)cc1` (stereo not drawn) [Compound 3] here?
A: Its value is 20%.

Q: What about the IC50 [1] of the same compound?
A: Its IC50 is 212 µM.

Q: What does the source list for `COc1ccc(C2NC(=S)NC(C)=C2C(=O)OCc2ccccc2)cc1` (stereo not drawn) [Compound 4]?
A: % inhibition [1]: 40%; IC50 [1]: 6.6 µM

Q: Which results are given for `CC1=C(C(=O)OCc2ccccc2)C(c2ccccc2)NC(=S)N1` (stereo not drawn) [Compound 5]?
A: % inhibition [1]: 40%; IC50 [1]: 11.8 µM

Q: What does the source list for `CC1=C(C(=O)OCc2ccccc2)C(c2cccc(O)c2)NC(=S)N1` (stereo not drawn) [Compound 6]?
A: % inhibition [1]: ≧90%^; IC50 [1]: 10.3 µM

Q: What does the source list for `CCOC(=O)C1=C(C)N(C)C(=S)NC1c1ccccc1` (stereo not drawn) [Compound 7]?
A: % inhibition [1]: 60%; IC50 [1]: 21 µM

Q: Which results are given for `CCOC(=O)C1=C(C)N(C)C(=S)NC1c1cccc(O)c1` (stereo not drawn) [Compound 8]?
A: % inhibition [1]: ≧90%^; IC50 [1]: 6.3 µM

Q: With `CC(=O)C1=C(C)NC(=S)NC1c1ccccc1` (stereo not drawn) [Compound 9] as the compound, how does the “% inhibition” value [1] read?
A: Its value is “≧90%^”.

Q: And the IC50 [1]?
A: Its IC50 is 24 µM.

Q: Which “% inhibition” value [1] does the source give for `CC(=O)C1=C(C)NC(=S)NC1c1ccc(O)cc1` (stereo not drawn) [Compound 10] here?
A: The value was 80%.

Q: And the IC50 [1]?
A: The IC50 was 56 µM.

Q: For `CC1=C(C(=O)c2ccccc2)C(c2ccc(O)cc2)NC(=S)N1` (stereo not drawn) [Compound 11], which “% inhibition” value [1] is on record?
A: The value was “≧90%^”.

Q: What about the IC50 [1] of the same compound?
A: Its IC50 is 14.7 µM.

Q: What does the source list for `CC(=O)C1=C(C)N(C)C(=S)NC1c1ccccc1` (stereo not drawn) [Compound 12]?
A: % inhibition [1]: 40%; IC50 [1]: 80 µM

Q: What does the source list for `CC1=C(C(=O)c2ccccc2)C(c2ccccc2)NC(=S)N1C` (stereo not drawn) [Compound 13]?
A: % inhibition [1]: ≧90%^; IC50 [1]: 1.1 µM

Q: With `CC1=C(C(=O)OCc2ccccc2)C(c2cccc(O)c2)NC(=S)N1C` (stereo not drawn) [Compound 14] as the compound, how does the “% inhibition” value [1] read?
A: The value was 48%.

Q: What about the IC50 [1] of the same compound?
A: The IC50 was 9.8 µM.

Q: For `CC(=O)C1=C(C)NC(=S)NC1c1cccc(O)c1` (stereo not drawn) [Compound 15], which “% inhibition” value [1] is on record?
A: Its value is “≧90%^”.

Q: And the IC50 [1]?
A: The IC50 was 0.51 µM.

Q: Which results are given for `CC(=O)C1=C(C)N(C)C(=S)NC1c1cccc(O)c1` (stereo not drawn) [Compound 16]?
A: % inhibition [1]: 40%; IC50 [1]: 133 µM

Q: What does the source list for `CC1=C(C(=O)c2ccccc2)C(c2cccc(O)c2)NC(=S)N1` (stereo not drawn) [Compound 17]?
A: % inhibition [1]: ≧90%^; IC50 [1]: 0.25 µM

Q: For `CC1=C(C(=O)c2ccccc2)C(c2cccc(O)c2)NC(=S)N1C` (stereo not drawn) [Compound 18], which “% inhibition” value [1] is on record?
A: Its value is “≧90%^”.

Q: For `CC1=C(C(=O)c2ccccc2)C(c2ccc(O)cc2)NC(=S)N1C` (stereo not drawn) [Compound 19], which “% inhibition” value [1] is on record?
A: Its value is 87%.

Q: And the IC50 [1]?
A: The IC50 was 24 µM.

Q: What does the source list for `CCOC(=O)C1=C(C)NC(=S)NC1c1cccc(Cl)c1` (stereo not drawn) [Compound 20]?
A: % inhibition [1]: 60%; IC50 [1]: 10 µM

Q: For `CCOC(=O)C1=C(C)NC(=S)NC1c1cccc(OC)c1` (stereo not drawn) [Compound 21], which “% inhibition” value [1] is on record?
A: Its value is 20%.

Q: And the IC50 [1]?
A: The IC50 was 57 µM.

Q: What does the source list for `CCOC(=O)C1=C(C)NC(=S)NC1c1ccccc1F` (stereo not drawn) [Compound 22]?
A: % inhibition [1]: 60%; IC50 [1]: 20 µM

Q: What does the source list for `CCOC(=O)C1=C(C)NC(=S)NC1c1ccccc1Cl` (stereo not drawn) [Compound 24]?
A: % inhibition [1]: 60%; IC50 [1]: 32 µM

Q: With `CCOC(=O)C1=C(C)NC(=S)NC1c1cccc(F)c1` (stereo not drawn) [Compound 25] as the compound, how does the “% inhibition” value [1] read?
A: The value was 60%.

Q: What about the IC50 [1] of the same compound?
A: The IC50 was 14 µM.

Q: For `CC1=C(C(=O)c2ccccc2)C(c2ccccc2)NC(=O)N1C` (stereo not drawn) [Compound 26], which “% inhibition” value [1] is on record?
A: The value was 84%.

Q: What about the IC50 [1] of the same compound?
A: The IC50 was 5 µM.

Q: For `CC1=C(C(=O)c2ccccc2)C(c2cccc(O)c2)NC(=O)N1C` (stereo not drawn) [Compound 27], which “% inhibition” value [1] is on record?
A: Its value is 85%.

Q: And the IC50 [1]?
A: The IC50 was 0.8 µM.

Q: With `C=CCN1C(=S)NC(c2cccc(O)c2)C(C(=O)c2ccccc2)=C1C(F)(F)F` (stereo not drawn) [Compound 28] as the compound, how does the “% inhibition” value [1] read?
A: The value was 70%.

Q: And the IC50 [1]?
A: Its IC50 is 17 µM.

Q: Which “% inhibition” value [1] does the source give for `CCOC(=O)C1=C(C(C)C)NC(=S)NC1c1cccc(O)c1` (stereo not drawn) [Compound 29] here?
A: The value was 80%.

Q: And the IC50 [1]?
A: Its IC50 is 8.5 µM.

Q: Which results are given for `CCOC(=O)C1=C(CC)N(C)C(=S)NC1c1cccc(O)c1` (stereo not drawn) [Compound 30]?
A: % inhibition [1]: ≧90%^; IC50 [1]: 10 µM

Q: With `CC1=C(C(=O)c2cccc(F)c2)C(c2cccc(O)c2)NC(=S)N1` (stereo not drawn) [Compound 31] as the compound, how does the “% inhibition” value [1] read?
A: The value was 87%.

Q: What about the IC50 [1] of the same compound?
A: The IC50 was 0.82 µM.

Q: For `CC1=C(C(=O)c2cccc(Cl)c2)C(c2cccc(O)c2)NC(=S)N1` (stereo not drawn) [Compound 32], which “% inhibition” value [1] is on record?
A: Its value is “≧90%^”.

Q: And the IC50 [1]?
A: The IC50 was 0.5 µM.

Q: With `CC1=C(C(=O)c2cccc(I)c2)C(c2cccc(O)c2)NC(=S)N1` (stereo not drawn) [Compound 33] as the compound, how does the “% inhibition” value [1] read?
A: The value was “≧90%^”.

Q: And the IC50 [1]?
A: Its IC50 is 0.5 µM.

Q: With `COc1cccc(C(=O)C2=C(C)NC(=S)NC2c2cccc(O)c2)c1` (stereo not drawn) [Compound 34] as the compound, how does the “% inhibition” value [1] read?
A: The value was “≧90%^”.

Q: What about the IC50 [1] of the same compound?
A: Its IC50 is 1.1 µM.

Q: Which IC50 (kinesin Eg5) does the source give for `CCOC(=O)C1=C(C)NC(=S)NC1c1cccc(O)c1` (stereo not drawn) [Monastrol] here?
A: Its IC50 is over 14 µM.
